Laboratory results from US20230355586A1, “Application of Valdecoxib in preparation of medications for preventing and treating glaucoma” (Central South University, priority 2022, published 2023).
Entries after “also recorded” stand apart in the source; their conditions may differ.

Experiments:
PERK-ATF4-CHOP pathway [1] = assay: Western blot of ER stress, PERK-ATF4-CHOP pathway and apoptosis proteins in R28 OGD/R model; type: cell-based, rat; conditions: R28 cells
R28 cells [2] = assay: Cell death of R28 cells pretreated with CCT020312; type: cell-based, rat; conditions: R28 cells pretreated with different concentrations of CCT020312
PERK-ATF4-CHOP pathway [3] = assay: Western blot of retina lysates in retinal I/R model; type: in vivo, rats; conditions: rat retina
Method: Through animal ethics, cell culture, animal selection, reagent and antibody information, anterior chamber compression rat model is established, […] cell OGD/R (oxygen-glucose deprivation/reoxygenation) model is established; HE (hematoxylin-eosin) staining, apoptosis by TUNEL (TdT-mediated dUTP Nick-End Labeling) detection, cell viability by CCK8 (Cell Counting Kit-8), Western blot assay, Annexin V-FITC/PI flow cytometry, PI/Hoechest staining and immunofluorescence assay are performed. […] The expression levels of the apoptosis-related proteins are examined in the control, I/R, I/R+DMSO and I/R+valdecoxib groups. […] The expression levels of p-PERK, cleaved caspase 3 and GRP78 in RGCs are evaluated by immunofluorescence.

R28 cells [4] = assay: Annexin V-FITC/PI flow cytometry apoptosis in R28 OGD/R model; type: cell-based, rat; conditions: vs. OGD/R group
Method: (§1) Through animal ethics, cell culture, animal selection, reagent and antibody information, anterior chamber compression rat model is established, […] cell OGD/R (oxygen-glucose deprivation/reoxygenation) model is established; HE (hematoxylin-eosin) staining, apoptosis by TUNEL (TdT-mediated dUTP Nick-End Labeling) detection, cell viability by CCK8 (Cell Counting Kit-8), Western blot assay, Annexin V-FITC/PI flow cytometry, PI/Hoechest staining and immunofluorescence assay are performed. The cell death rate at multiple time points with the OGD/R model is detected using PI staining. PI-positive cells are identified as dead cells. The proportion of PI-positive cells at multiple time points are calculated. […] To identify whether the valdecoxib's effect involved an anti-apoptosis mechanism, FCM (flow cytometry) is performed, and a further analysis indicates both that OGD/R induced cell apoptosis and the valdecoxib decreases the cell apoptosis rate, as shown in FIGS. 1E-1H.

R28 cells [5] = assay: CCK-8 cell viability in R28 OGD/R model; type: cell-based, rat; conditions: 2 h post-OGD/R, vs. OGD/R group
Method: as §1

[6] = tested on: RGCs (retinal ganglion cells); assay: TUNEL/RBPMS apoptosis assay of retina in aHIOP retinal I/R model; type: in vivo, SD (Sprague-Dawley) rats; conditions: rat I/R model, compared to the I/R group
Method: (§2) Through animal ethics, cell culture, animal selection, reagent and antibody information, anterior chamber compression rat model is established, R28 cell OGD/R (oxygen-glucose deprivation/reoxygenation) model is established; HE (hematoxylin-eosin) staining, apoptosis by TUNEL (TdT-mediated dUTP Nick-End Labeling) detection, cell viability by CCK8 (Cell Counting Kit-8), Western blot assay, Annexin V-FITC/PI flow cytometry, PI/Hoechest staining and immunofluorescence assay are performed.
(§3) In order to evaluate the potential therapeutic prospect of VAL for saving RGCs (retinal ganglion cells) in glaucoma retinal injury, the glaucoma retinal IR is simulated by performing an aHIOP (acute high intraocular pressure) model on SD (Sprague-Dawley) rats. The rats are sacrificed and their eyeballs are removed at 1, 3 or 7 days post-IRI. HE staining is performed to detect the morphological changes in the retina. It is discovered that, compared to the control group, the retinas from 3 and 7 days post-IRI are markedly thinner. Additionally, lost RCGs or their disordered arrangement is observed at 3 and 7 days after IRI when compared with the control retina, as shown in FIGS. 2A and 2B. Next, the valdecoxib's effect on the RGCs in the FR model by HE staining and immunofluorescence. […] A TUNEL assay is performed to clarify whether valdecoxib's protective effect involves the anti-apoptosis mechanism. […]

[7] = tested on: retina / RGCs (retinal ganglion cells); assay: HE staining of retina in acute high intraocular pressure (aHIOP) retinal I/R model; type: in vivo, SD (Sprague-Dawley) rats; conditions: rat I/R model, 3 days post-injury, intravitreal injection
Method: as §2, §3

[8] = I/R, pretreated with valdecoxib

CCN(CC)CCC(=O)N1N=C(c2c(-c3ccccc3)c3cc(Br)ccc3[nH]c2=O)CC1c1ccc(Br)cc1 (centres unmarked) [CCT020312]
bax expression level (Western blot) (PERK-ATF4-CHOP pathway [1]; CCT020312 pre-treated group): consistent with those of the PERK-ATF4-CHOP pathway proteins
cleaved caspase 3 expression level (Western blot) (PERK-ATF4-CHOP pathway [1]; CCT020312 pre-treated group): consistent with those of the PERK-ATF4-CHOP pathway proteins
expression of markers of ER stress and the PERK-ATF4-CHOP pathway (Western blot) (PERK-ATF4-CHOP pathway [1]; valdecoxib pretreatment prior to CCT020312, vs. OGD/R+VAL): reverses the valdecoxib's effects, increasing the expression
cell death (R28 cells [2]): no significant cell death

Cc1onc(-c2ccccc2)c1-c1ccc(S(N)(=O)=O)cc1 [valdecoxib]
bax expression (Western blot) (PERK-ATF4-CHOP pathway [3]; I/R injury): decreases the expression
bcl-2 expression (Western blot) (PERK-ATF4-CHOP pathway [3]; I/R injury): opposite of that of the bax and cleaved caspase 3
cleaved caspase 3 expression (Western blot) (PERK-ATF4-CHOP pathway [3]; I/R injury): decreases the expression
ATF4 expression level (Western blot) (PERK-ATF4-CHOP pathway [3]; [8]): reduced
CHOP expression level (Western blot) (PERK-ATF4-CHOP pathway [3]; [8]): reduced
GRP78 expression (Western blot) (PERK-ATF4-CHOP pathway [3]; [8]): consistent with the PERK-ATF4-CHOP pathway proteins
p-PERK expression level (Western blot) (PERK-ATF4-CHOP pathway [3]; [8]): reduced
ATF4 protein level (Western blot) (PERK-ATF4-CHOP pathway [1]; valdecoxib pretreatment): decrease the expression; also recorded: significantly reduces
CHOP protein level (Western blot) (PERK-ATF4-CHOP pathway [1]; valdecoxib pretreatment): decrease the expression; also recorded: significantly reduces
GRP78 protein level (Western blot) (PERK-ATF4-CHOP pathway [1]; valdecoxib pretreatment): decrease the expression; also recorded: significantly reduces
bax protein level (Western blot) (PERK-ATF4-CHOP pathway [1]; valdecoxib pretreatment): decreased; also recorded: significantly reduces
bcl-2 protein expression (Western blot) (PERK-ATF4-CHOP pathway [1]; valdecoxib pretreatment): opposite to that of the bax and cleaved caspase 3
cleaved caspase 3 protein level (Western blot) (PERK-ATF4-CHOP pathway [1]; valdecoxib pretreatment): decreased; also recorded: significantly reduces
p-PERK protein level (Western blot) (PERK-ATF4-CHOP pathway [1]; valdecoxib pretreatment): decrease the expression; also recorded: significantly reduces
cell apoptosis rate (flow cytometry) (R28 cells [4]): decreases
cell survival rate (CCK-8) (R28 cells [5]; 1 μmol/L): significantly elevates
cell survival rate (CCK-8) (R28 cells [5]; 1 μmol/L, listed as VAL): significant increase
cell survival rate (CCK-8) (R28 cells [5]; 5 μmol/L): significantly elevates
cell survival rate (CCK-8) (R28 cells [5]; 5 μmol/L, listed as VAL): significant increase
TUNEL-positive RGCs [6]: reduced
RGCs' survival rate [7]: significantly increases
retinal thickness (HE staining) [7]: significantly increases
